Measured values: patent publication US5017689A, “Dynorphin analogs specific for kappa opioid receptors” (Arizona Technology Development Corporation, priority 1989, dated 1991)
Like-named read-outs stand apart in the source and are kept apart here. Bridge positions count the residues as written; N and C are the ends. Peptide text beside a SMILES is read from it.

How the values were obtained:
[1] = target: T1, κ opioid receptors (Cavia porcellus, UniProt P41144); assay: Radioligand binding, inhibition of [3H]U-69593 binding to guinea pig brain membrane
T1 construct: from tissue; host or cells: whole guinea pig brain membranes
Experimental: (§2) Samples were incubated for 1.0 h at 25° C. before filtration through glass fiber filter strips (GF/B, Whatman) pretreated with 0.1% polyethylenimine. Nonspecific binding (=20% of total binding) was defined as binding measured in the presence of 1.0 μM Dyn A1-13.

[2] = target: T2, δ opioid receptors (Rattus norvegicus, UniProt P33533); assay: Radioligand binding, [3H]DPDPE, brain membranes; conditions: rat brain homogenate, 1.0 nM radioligand
T2 construct: membranes prepared from whole rat brain (less cerebellum); from tissue; host or cells: whole rat brain (less cerebellum) membranes
Experimental: as §2

[3] = target: μ opioid receptors (Rattus norvegicus, UniProt P33535); assay: biochemical
Experimental: as §2

[4] = tested on: kappa opioid receptor; conditions: cited from earlier work
[5] = administered i.c.v.; cited from earlier work
[6] = administered i.c.v.; cited from earlier work; remark: listed apart in the source
[7] = tested on: guinea pig ileum (GPI) longitudinal muscle/myenteric plexus preparation; assay: Guinea pig ileum (GPI) longitudinal muscle/myenteric plexus bioassay; type: cell-based
Experimental: The known guinea pig ileum (GPI) longitudinal muscle/myenteric plexus preparation was used for in vitro bioassays (Kosterlitz, H.W., Lydon, R.J., and Watt, A.J., (1970), Br. J. Pharmacol., 39, 398-413). The tissues were suspended under a final tension of 1 g in organ baths, bathed with Krebs buffer (NaCl 118 mM, KCl 4.7 mM, CaCl2 2.5 mM, KH2 PO4 1.19 mM, MgSO4 1.18 mM, NaHCO3 25 mM, and glucose 11.48 mM), maintained at 37° C. and aerated with 95% O2 /5% CO2. Electrical stimuli were 0.4 msec pulses of supramaximal voltage, at a rate 6/min. Isometric contractions were measured via strain gauge force transducers on chart recorders. The mouse vas deferens (MVD) preparation was also performed as described by Hughes et al. (Hughes, J., Kosterlitz, H.W., and Leslie, F.M., (1975), Br. J. Pharmacol., 53, 371-381). The Krebs buffer was made as above, but without magnesium and the tissues were suspended under a final tension of 500 mg. Pulse duration was 2 msec. Dose-response testing in all preparations was carried out in a cumulative fashion. The compounds were tested for intrinsic agonist activity in the two in vitro bioassays. […] Ke values were calculated according to the formula: […]
(§1) where [Ant] is the concentration of the antagonist, and DR is the dose ratio (i.e., IC50 after antagonism divided by the IC50 before antagonist activity was measured).

[8] = tested on: mouse vas deferens (MVD) preparation; assay: Mouse vas deferens (MVD) bioassay; type: cell-based
Experimental: The known guinea pig ileum (GPI) longitudinal muscle/myenteric plexus preparation was used for in vitro bioassays (Kosterlitz, H.W., Lydon, R.J., and Watt, A.J., (1970), Br. J. Pharmacol., 39, 398-413). The tissues were suspended under a final tension of 1 g in organ baths, bathed with Krebs buffer (NaCl 118 mM, KCl 4.7 mM, CaCl2 2.5 mM, KH2 PO4 1.19 mM, MgSO4 1.18 mM, NaHCO3 25 mM, and glucose 11.48 mM), maintained at 37° C. and aerated with 95% O2 /5% CO2. Electrical stimuli were 0.4 msec pulses of supramaximal voltage, at a rate 6/min. Isometric contractions were measured via strain gauge force transducers on chart recorders. The mouse vas deferens (MVD) preparation was also performed as described by Hughes et al. (Hughes, J., Kosterlitz, H.W., and Leslie, F.M., (1975), Br. J. Pharmacol., 53, 371-381). The Krebs buffer was made as above, but without magnesium and the tissues were suspended under a final tension of 500 mg. Pulse duration was 2 msec. Dose-response testing in all preparations was carried out in a cumulative fashion. The compounds were tested for intrinsic agonist activity in the two in vitro bioassays. Thus, concentrations showing intrinsic activity for each analog were tested in the presence of naloxone (1000 nM) to define opioid activity. To further define the opioid selectivity of the agonist effect, the δ selective antagonist ICI 174,864 (Cotton, R., Giles, M.G., Miller, L., Shaw, J.S., and Timms, D. (1984), Eur. J. Pharmacol., 97, 331-332) was utilized in the MVD, and the μ selective antagonists CTAP (Pelton, J.T., Kazmierski, W., Gulya, K., Yamamura, H.I., and Hruby, V.J. (1986), J. Med. Chem., 29, 2370-2375) or CTP (Pelton, J.T., Gulya, K., Hruby, V.J., Duckles, S., and Yamamura, H.I. (1985) Proc. Natl. Acad. Sci. U.S.A., 82, 236-239) were employed in the GPI, all at 1000 nM. Ke values were calculated according to the formula: […]
as §1

[9] = selectivity, ratio of IC50 values

Chain of μ opioid receptors (P33535 whole entry): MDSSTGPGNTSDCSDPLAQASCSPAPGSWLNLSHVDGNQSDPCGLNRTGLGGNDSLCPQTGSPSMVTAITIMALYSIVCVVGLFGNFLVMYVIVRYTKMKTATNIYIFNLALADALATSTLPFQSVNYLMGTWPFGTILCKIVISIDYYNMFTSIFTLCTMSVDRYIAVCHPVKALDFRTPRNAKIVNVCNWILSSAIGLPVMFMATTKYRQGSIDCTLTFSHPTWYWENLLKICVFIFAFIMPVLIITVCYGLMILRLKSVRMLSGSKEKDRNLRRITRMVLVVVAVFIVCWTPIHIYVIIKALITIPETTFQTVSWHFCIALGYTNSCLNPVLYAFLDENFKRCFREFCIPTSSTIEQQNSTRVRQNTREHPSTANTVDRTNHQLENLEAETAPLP
T1 sequence (P41144 whole entry): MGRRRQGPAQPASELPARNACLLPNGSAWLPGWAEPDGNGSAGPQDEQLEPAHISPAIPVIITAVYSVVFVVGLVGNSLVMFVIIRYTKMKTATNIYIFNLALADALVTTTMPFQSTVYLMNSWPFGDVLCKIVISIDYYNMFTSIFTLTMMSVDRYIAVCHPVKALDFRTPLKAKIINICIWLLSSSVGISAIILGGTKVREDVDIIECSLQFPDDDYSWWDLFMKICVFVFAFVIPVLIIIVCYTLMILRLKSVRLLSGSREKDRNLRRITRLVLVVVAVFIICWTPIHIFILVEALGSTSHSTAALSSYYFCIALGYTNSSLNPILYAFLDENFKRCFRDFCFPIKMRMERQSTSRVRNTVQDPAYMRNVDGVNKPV
T2 sequence (P33533 whole entry): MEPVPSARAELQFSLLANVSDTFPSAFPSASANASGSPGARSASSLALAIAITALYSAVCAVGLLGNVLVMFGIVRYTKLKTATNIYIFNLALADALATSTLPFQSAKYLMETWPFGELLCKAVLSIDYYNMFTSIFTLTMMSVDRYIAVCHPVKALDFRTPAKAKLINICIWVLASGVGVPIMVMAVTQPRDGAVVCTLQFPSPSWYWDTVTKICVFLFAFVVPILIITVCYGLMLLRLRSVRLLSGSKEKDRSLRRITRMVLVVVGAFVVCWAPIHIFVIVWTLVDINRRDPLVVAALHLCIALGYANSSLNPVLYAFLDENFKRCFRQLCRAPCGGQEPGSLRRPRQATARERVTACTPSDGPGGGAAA

Compound | IC50 [1] [nM] | IC50 [2] [nM] | IC50 [3] [nM] | also measured
CC[C@H](C)[C@H](NC(=O)[C@H](CCCN=C(N)N)NC(=O)[C@H](CCCN=C(N)N)NC(=O)[C@H](CC(C)C)NC(=O)[C@H](Cc1ccccc1)NC(=O)CNC(=O)CNC(=O)[C@@H](N)Cc1ccc(O)cc1)C(=O)N[C@@H](CCCN=C(N)N)C(=O)N1CCC[C@H]1C(=O)N[C@@H](CCCCN)C(=O)N[C@@H](CC(C)C)C(=O)N[C@@H](CCCCN)C(N)=O [Dyn A1-13NH2, reference compound] | 0.109 ± 0.003 | 2.96 | 1.33 | –
C[C@H]1NC(=O)[C@H](CCCNC(=N)N)NC(=O)[C@H](CCCNC(=N)N)NC(=O)[C@@H](NC(=O)[C@H](Cc2ccccc2)NC(=O)CNC(=O)CNC(=O)[C@@H](N)Cc2ccc(O)cc2)CSSC[C@@H](C(N)=O)NC(=O)[C@@H]2CCCN2C(=O)[C@H](CCCNC(=N)N)NC1=O [Compound 2] | 0.28 ± 0.036 | 1.63 ± 0.53 | 0.27 ± 0.14 | –
CC[C@H](C)[C@H](NC(=O)[C@H](CCCNC(=N)N)NC(=O)[C@H](CCCNC(=N)N)NC(=O)[C@H](CC(C)C)NC(=O)[C@H](Cc1ccccc1)NC(=O)CNC(=O)CNC(=O)[C@@H](N)Cc1ccccc1)C(=O)N[C@@H](CCCNC(=N)N)C(=O)N1CCC[C@@H]1C(=O)N[C@@H](CCCCN)C(N)=O [Compound 6, [Phe^1, D-Pro^10]Dyn A1-11NH2] | 2.4 ± 0.56 | 390 ± 52 | 120 ± 22 | –
[D-pro^10 ]Dyn A1-11 -OH [DPDYN] | – | – | – | reported binding affinity ([4]; against the kappa ligand [3H]Bremazocine): about 0.032 nM; κ vs. μ and κ vs δ selectivities [4]: high; activity against thermal stimulus [5]: did not show any activity; effect against chemical pain [6]: dose-related effect
CC[C@H](C)[C@@H]1NC(=O)[C@H](CCCN=C(N)N)NC(=O)[C@H](CCCN=C(N)N)NC(=O)[C@@H](NC(=O)[C@H](Cc2ccccc2)NC(=O)CNC(=O)CNC(=O)[C@@H](N)Cc2ccc(O)cc2)CSSC[C@@H](C(N)=O)NC(=O)[C@@H]2CCCN2C(=O)[C@H](CCCN=C(N)N)NC1=O [Compound 1] (H-YGGFCRRIRPC-NH2; disulfide 5-11) | 0.39 ± 0.06 | 18.6 ± 7.5 | 2.3 ± 0.72 | –
CC(C)C[C@@H]1NC(=O)[C@H](CCCCN)NC(=O)[C@@H]2CCCN2C(=O)[C@H](CCCN=C(N)N)NC(=O)[C@@H](NC(=O)[C@H](CCCN=C(N)N)NC(=O)[C@H](CCCN=C(N)N)NC(=O)[C@H](CC(C)C)NC(=O)[C@H](Cc2ccccc2)NC(=O)CNC(=O)CNC(=O)[C@@H](N)Cc2ccc(O)cc2)CSSC[C@@H](C(N)=O)NC1=O [Compound 3] | – | 3.97 ± 0.96 | 0.98 ± 0.12 | –
CC(C)C[C@H](NC(=O)[C@H](Cc1ccccc1)NC(=O)CNC(=O)CNC(=O)[C@@H](N)Cc1ccc(O)cc1)C(=O)N[C@@H](CCCNC(=N)N)C(=O)N[C@@H](CCCNC(=N)N)C(=O)N[C@@H]1CSSC[C@H](C(N)=O)NC(=O)[C@H](CC(C)C)NC(=O)[C@H](CCCCN)NC(=O)[C@@H]2CCCN2C(=O)[C@H](CCCNC(=N)N)NC1=O [Compound 5] | – | – | – | δ/κ [1, 9]: 130; μ/κ [1, 9]: 3; IC50 ([1]; κ, guinea pig brain homogenate, 1.0 nM radioligand, read-out: IC50 (nM) [3H]-U-69,593): 0.11 ± 0.009 nM; IC50 [7]: 1.75 nM; Ke (nM) for: NLX ([7]; naloxone 1000 nM): 233 nM; IC50 [8]: 19.5 nM; Ke (nM) for: NLX ([8]; naloxone 1000 nM): 18.2 nM; Ke (nM) for: ICI ([8]; δ antagonist ICI 174,864 1000 nM): 1000 nM; Ke (nM) for: CTAP ([8]; μ antagonist CTAP 1000 nM): 1430 nM
CC(C)C[C@H](NC(=O)[C@H](Cc1ccccc1)NC(=O)CNC(=O)CNC(=O)[C@@H](N)Cc1ccc(Br)cc1)C(=O)N[C@@H](CCCNC(=N)N)C(=O)N[C@@H](CCCNC(=N)N)C(=O)N[C@H](C)C(=O)N[C@@H](CCCNC(=N)N)C(=O)N1CCC[C@H]1C(=O)N[C@@H](CCCCN)C(N)=O [Compound 7, [p-BrPhe^1, D-Ala^8]Dyn A1-11NH2] | 1.7 ± 0.14 | 1060 ± 40 | 47 ± 5.1 | –
CC(C)C[C@@H]1NC(=O)[C@H](CCCCN)NC(=O)[C@@H]2CCCN2C(=O)[C@H](CCCNC(=N)N)NC(=O)[C@H](NC(=O)[C@H](CCCNC(=N)N)NC(=O)[C@H](CCCNC(=N)N)NC(=O)[C@H](CC(C)C)NC(=O)[C@H](Cc2ccccc2)NC(=O)CNC(=O)CNC(=O)[C@@H](N)Cc2ccc(O)cc2)CSSC[C@@H](C(N)=O)NC1=O [Compound 4] | – | 104 ± 1.86 | 10.3 ± 3.9 | –
